Source: ChEMBL document CHEMBL3769389, “Development of a potent 2-oxoamide inhibitor of secreted phospholipase A2 guided by molecular docking calculations and molecular dynamics simulations” (Bioorg Med Chem, 2016)

Tests used:
[1] = target: Phospholipase A2 (Homo sapiens) (UniProt P04054); assay: Inhibition of human group 1B secreted phospholipase A2 at 10 uM by fluorescence assay
[2] = target: T1, Group 10 secretory phospholipase A2 (Homo sapiens) (UniProt O15496); assay: Inhibition of human group 10 secreted phospholipase A2 at 10 uM by fluorescence assay
T1 sequence (whole entry): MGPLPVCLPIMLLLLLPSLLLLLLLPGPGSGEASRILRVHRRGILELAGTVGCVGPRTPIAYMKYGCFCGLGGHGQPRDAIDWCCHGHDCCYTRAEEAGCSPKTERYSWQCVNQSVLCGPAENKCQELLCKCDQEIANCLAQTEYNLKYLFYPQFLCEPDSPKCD

[3] = target: T2, Phospholipase A2 group V (Homo sapiens) (UniProt P39877); assay: Inhibition of human group 5 secreted phospholipase A2 at 10 uM by fluorescence assay
T2 sequence (whole entry): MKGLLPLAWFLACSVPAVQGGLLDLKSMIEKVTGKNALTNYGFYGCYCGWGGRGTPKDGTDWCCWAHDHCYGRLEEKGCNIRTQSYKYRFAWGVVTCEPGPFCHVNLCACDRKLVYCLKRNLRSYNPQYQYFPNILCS

[4] = target: T3, Phospholipase A2, membrane associated (Homo sapiens) (UniProt P14555); assay: Inhibition of human group 2A secreted phospholipase A2 at 10 uM by fluorescence assay
T3 sequence (whole entry): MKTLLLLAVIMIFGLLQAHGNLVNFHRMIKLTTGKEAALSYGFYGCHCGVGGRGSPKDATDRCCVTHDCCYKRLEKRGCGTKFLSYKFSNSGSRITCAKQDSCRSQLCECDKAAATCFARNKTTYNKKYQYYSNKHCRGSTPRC

[5] = target: T3, Phospholipase A2, membrane associated (Homo sapiens); assay: Inhibition of human group 2A secreted phospholipase A2 at 1 uM by fluorescence assay
[6] = target: T4, Phospholipase A2, membrane associated (Mus musculus) (UniProt P31482); assay: Inhibition of mouse group 2A secreted phospholipase A2 at 1 uM by fluorescence assay
T4 sequence (whole entry): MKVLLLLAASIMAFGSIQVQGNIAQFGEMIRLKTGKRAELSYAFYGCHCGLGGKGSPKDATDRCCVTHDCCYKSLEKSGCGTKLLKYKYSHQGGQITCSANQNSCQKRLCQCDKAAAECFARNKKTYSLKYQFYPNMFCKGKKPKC

[7] = target: T5, Group IIE secretory phospholipase A2 (Homo sapiens) (UniProt Q9NZK7); assay: Inhibition of human group 2E secreted phospholipase A2 assessed as remaining activity at 1000 nM by fluorescence assay
T5 sequence (whole entry): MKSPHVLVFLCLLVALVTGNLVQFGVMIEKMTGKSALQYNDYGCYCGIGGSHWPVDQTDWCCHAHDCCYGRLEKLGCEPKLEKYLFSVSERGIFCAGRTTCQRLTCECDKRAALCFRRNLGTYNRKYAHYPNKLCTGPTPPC

[8] = target: T1, Group 10 secretory phospholipase A2 (Homo sapiens); assay: Inhibition of human group 10 secreted phospholipase A2 assessed as remaining activity at 1000 nM by fluorescence assay
[9] = target: T6, Group IIF secretory phospholipase A2 (Homo sapiens) (UniProt Q9BZM2); assay: Inhibition of human group 2F secreted phospholipase A2 assessed as remaining activity at 1000 nM by fluorescence assay
T6 sequence (whole entry): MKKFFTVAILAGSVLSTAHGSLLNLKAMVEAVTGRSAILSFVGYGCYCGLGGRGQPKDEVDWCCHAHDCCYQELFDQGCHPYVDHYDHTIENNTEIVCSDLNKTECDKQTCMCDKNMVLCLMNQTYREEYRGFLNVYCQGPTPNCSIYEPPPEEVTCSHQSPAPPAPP

[10] = target: T4, Phospholipase A2, membrane associated (Mus musculus); assay: Potency index, ratio of GK126 IC50 to compound IC50 for mouse group 2A secreted phospholipase A2
[11] = target: T7, Phospholipase A2 group V (Homo sapiens, UniProt P39877); assay: Inhibition of human group 5 secreted phospholipase A2 by fluorescence assay
T7 sequence (P39877 whole entry): T2 sequence (whole entry)

[12] = target: T8, Group IID secretory phospholipase A2 (Mus musculus) (UniProt Q9WVF6); assay: Inhibition of mouse 2D secreted phospholipase A2 assessed as remaining activity at 1000 nM by fluorescence assay
T8 sequence (whole entry): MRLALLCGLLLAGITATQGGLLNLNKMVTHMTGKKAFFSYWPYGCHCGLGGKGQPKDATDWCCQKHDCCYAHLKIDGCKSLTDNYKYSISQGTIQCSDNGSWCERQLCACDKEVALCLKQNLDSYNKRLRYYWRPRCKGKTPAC

[13] = target: T9, Phospholipase A2, membrane associated (Mus musculus, UniProt P31482); assay: Inhibition of mouse group 2A secreted phospholipase A2 by fluorescence assay
T9 sequence (P31482 whole entry): T4 sequence (whole entry)

[14] = target: Phospholipase A2 (Homo sapiens) (UniProt P04054); assay: Inhibition of human group 1B secreted phospholipase A2 assessed as remaining activity at 1000 nM by fluorescence assay
[15] = target: T3, Phospholipase A2, membrane associated (Homo sapiens); assay: Potency index, ratio of GK126 IC50 to compound IC50 for human group 2A secreted phospholipase A2
[16] = target: T10, Group 10 secretory phospholipase A2 (Mus musculus) (UniProt Q9QXX3); assay: Inhibition of mouse group 10 secreted phospholipase A2 assessed as remaining activity at 1000 nM by fluorescence assay
T10 sequence (whole entry): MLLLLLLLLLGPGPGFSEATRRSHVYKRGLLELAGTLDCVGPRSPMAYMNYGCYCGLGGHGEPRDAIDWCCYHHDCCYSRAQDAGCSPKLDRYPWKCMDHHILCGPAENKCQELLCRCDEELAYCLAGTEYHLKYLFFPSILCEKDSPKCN

[17] = species: Homo sapiens; assay: Selectivity ratio of IC50 for human group 5 secreted phospholipase A2 to human group 2A secreted phospholipase A2
[18] = target: T11, Phospholipase A2 group V (Mus musculus) (UniProt P97391); assay: Inhibition of mouse group 5 secreted phospholipase A2 assessed as remaining activity at 1000 nM by fluorescence assay
T11 sequence (whole entry): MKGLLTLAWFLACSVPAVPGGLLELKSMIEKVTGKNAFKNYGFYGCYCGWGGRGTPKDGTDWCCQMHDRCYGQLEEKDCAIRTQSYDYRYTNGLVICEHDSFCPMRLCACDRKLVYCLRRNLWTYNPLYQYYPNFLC

[19] = target: T12, Phospholipase A2, membrane associated (Homo sapiens, UniProt P14555); assay: Inhibition of human group 2A secreted phospholipase A2 by fluorescence assay
T12 sequence (P14555 whole entry): T3 sequence (whole entry)

Phospholipase A2 (Homo sapiens), sequence (P04054 23-148 limits assumed): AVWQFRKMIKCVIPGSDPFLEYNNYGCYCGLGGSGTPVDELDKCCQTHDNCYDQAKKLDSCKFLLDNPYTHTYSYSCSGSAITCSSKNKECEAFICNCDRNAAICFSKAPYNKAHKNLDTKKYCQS

Row | inhibition [1] | inhibition [2] | inhibition [3] | inhibition [4] | inhibition [5] | inhibition [6] | SMILES | further results
1 | 30% | 54% | 50% | 21% | – | – | CC(C)[C@H](NC(=O)C(=O)CCCCc1ccc(-c2ccccc2)cc1)C(=O)O | –
2 | – | – | – | – | < 25% | < 25% | CCCCCCCCCCCCCCC(=O)C(=O)N[C@H](C(=O)O)C(C)(C)C | –
3 | – | – | – | – | < 25% | < 25% | CCCCCCCCCCCCCCC(=O)C(=O)N[C@@H](CCC(=O)O)C(=O)O | –
4 | – | – | – | – | < 25% | < 25% | CCCCCCCCCCCCCCC(=O)C(=O)N1CCC[C@H]1C(=O)O | –
5 | – | – | – | – | – | – | CCCCCCCCCCCCCCC(=O)C(=O)N[C@H](C(=O)O)C(C)C | Activity [7]: 93%; Activity [8]: 95%; Activity [9]: 94%; Ratio IC50 [10]: 2; IC50 [11]: 1200 nM; Activity [12]: 99%; IC50 [13]: 68 nM; Activity [14]: 98%; Ratio IC50 [15]: 2; Activity [16]: 98%; Ratio IC50 [17]: 10; Activity [18]: 90%; IC50 [19]: 143 nM
6 | 56% | 40% | 40% | 11% | – | – | CC(C)[C@H](NC(=O)C(=O)CCCCc1ccccc1)C(=O)O | –
7 | – | – | – | – | < 25% | < 25% | CCCCCCCCCCCCCCC(=O)C(=O)NC(C)(C)C(=O)O | –
8 | – | – | – | – | < 25% | < 25% | CCCCCCCCCCCCCCC(=O)C(=O)N[C@@H](C)C(=O)O | –
9 | 50% | 56% | 53% | 50% | – | – | CC(C)[C@H](NC(=O)C(=O)c1ccc2ccccc2c1)C(=O)O | –
10 | – | – | – | – | < 25% | < 25% | CCCCCCCCCCCCCCC(=O)C(=O)N[C@@H](CCC(=O)O)C(=O)OCC | –
11 | 20% | 51% | 26% | 27% | – | – | CC(C)[C@H](NC(=O)C(=O)CCCCc1ccc2ccccc2c1)C(=O)O | –
